Drawing on patent publication US12371454B2, “Cyclic peptide compound having Kras inhibitory action” (priority 2019, dated 2025), this text covers IC50 for 13 compounds.

pIC50: −log10 of the molar value. Starred links: 1 amine or outer side, 2 acyl side, 3 side chain; linkers in the order of their positions; H or OH if unused. Positions of bridges follow the written chain, without caps; N, C: chain ends. Non-standard residues stand in square brackets, D forms with d. Residues, ends and D or L forms follow the SMILES beside them. *: point of attachment. hPhe(3-Cl-4-CF3) = N[C@@H](CCc1ccc(C(F)(F)F)c(Cl)c1)C(=O)O; hPhe(3-F,4-CF3) = N[C@@H](CCc1ccc(C(F)(F)F)c(F)c1)C(=O)O; NMePhe(3-CF3) = CN[C@@H](Cc1cccc(C(F)(F)F)c1)C(=O)O; hPhe(4-CF3) = N[C@@H](CCc1ccc(C(F)(F)F)cc1)C(=O)O; Pro(cis-4-Ph) = O=C(O)[C@@H]1C[C@H](c2ccccc2)CN1; 3Oxa8azabicyclo(3.2.1)octane = C1CC2COCC1N2*; NMePhe(3-Cl) = CN[C@@H](Cc1cccc(Cl)c1)C(=O)O; NMePhe(4-Cl) = CN[C@@H](Cc1ccc(Cl)cc1)C(=O)O; X35 = CN([C@@](C)(Cc1ccccc1)C(=O)[*:2])[*:1]; NMeGly(cPent) = CN[C@H](C(=O)O)C1CCCC1; Phe(3-I) = N[C@@H](Cc1cccc(I)c1)C(=O)O; NMeY = CN[C@@H](Cc1ccc(O)cc1)C(=O)O; NMeCha = CN[C@@H](CC1CCCCC1)C(=O)O; NMeChg = CN[C@H](C(=O)O)C1CCCCC1; NMeF = CN[C@@H](Cc1ccccc1)C(=O)O; NMeT = CN[C@H](C(=O)O)[C@@H](C)O; d(β3hL) = CC(C)C[C@@H](N)CC(=O)O; N(CH2CH2)2CF2 = FC1(F)CCN(*)CC1; NMeD = CN[C@@H](CC(=O)O)C(=O)O; NMeL = CN[C@@H](CC(C)C)C(=O)O; NMeV = CN[C@H](C(=O)O)C(C)C; d(β3hA) = C[C@@H](N)CC(=O)O; NMeA = CN[C@@H](C)C(=O)O; NMeAib = CNC(C)(C)C(=O)O; Nle = CCCC[C@H](N)C(=O)O; Piperidide = C1CCN(*)CC1; Pyrrolidide = C1CCN(*)C1; Ac5c = NC1(C(=O)O)CCCC1; Aze = O=C(O)[C@@H]1CCN1; NBuGly = CCCCNCC(=O)O; Sar = CNCC(=O)O

The experiment deals with T1, Kras and SOS1 (biotin-tagged human Kras loaded with GDP, His-tagged human SOS1) (Homo sapiens, UniProt P01116, G12D).
T1 construct: made in house; host or cells: E. coli (stated for Kras only)
T1 sequence (P01116 1-188 isoform P01116-2 G12D): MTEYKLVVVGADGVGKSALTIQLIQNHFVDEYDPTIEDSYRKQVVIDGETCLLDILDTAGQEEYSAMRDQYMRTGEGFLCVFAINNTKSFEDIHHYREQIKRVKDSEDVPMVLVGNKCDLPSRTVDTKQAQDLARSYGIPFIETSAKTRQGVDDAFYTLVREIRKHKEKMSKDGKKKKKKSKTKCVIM
Kind of experiment: Protein-protein interaction inhibition between Kras and SOS1 (KrasGl2D-SOS PPI) using AlphaScreen. The settings on record: AlphaScreen; biotin-tagged human Kras loaded with GDP, His-tagged human SOS1; read-out: KRAS G12D-SOS PPI IC50. The experiment is classed as binding. In a few lines: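 AlphaScreen format: Ni donor beads capture His-SOS1, streptavidin acceptor beads capture biotinylated Kras (E. coli-expressed, GDP-loaded post-purification). Excite 680 nm, read 520-620 nm.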
On the technique in general: Bead proximity is the source of the signal in Alpha formats.
Take `CC[C@H](C)[C@@H]1NC(=O)[C@H](CC(C)C)N(C)C(=O)C[C@@H](CC(C)C)NC(=O)[C@H](C(C)C)N(C)C(=O)C2(CCCC2)NC(=O)[C@@H]2CCCN2C(=O)[C@H](CCc2ccc(C(F)(F)F)c(Cl)c2)NC(=O)CN(C)C(=O)[C@H](CC2CCCCC2)N(C)C(=O)CN(C)C(=O)CN(C)C1=O` [Compound 1032] (cyclo([Ac5c][NMeV][d(β3hL)][NMeL]I[Sar][Sar][NMeCha][Sar][hPhe(3-Cl-4-CF3)]P)): the pIC50 was 7.22.
As for `CCCCN1CC(=O)N(C)[C@@H](CC2CCCCC2)C(=O)N(C)CC(=O)N[C@@H](CCc2ccc(C(F)(F)F)c(Cl)c2)C(=O)N2CCC[C@H]2C(=O)NC2(CCCC2)C(=O)N(C)[C@@H](C(C)C)C(=O)N[C@H](C)CC(=O)N(C)[C@@H](CC(C)C)C(=O)N[C@@H]([C@@H](C)CC)C(=O)N(C)CC1=O` [Compound 1033] (cyclo([Ac5c][NMeV][d(β3hA)][NMeL]I[Sar][NBuGly][NMeCha][Sar][hPhe(3-Cl-4-CF3)]P)), the pIC50 was 6.44.
With `CC[C@H](C)[C@@H]1NC(=O)[C@H](CC(C)C)N(C)C(=O)C[C@@H](C(=O)N2C3CCC2COC3)N(C)C(=O)[C@H](C2CCCC2)N(C)C(=O)C2(CCCC2)NC(=O)[C@H](CC(=O)N2CCC(F)(F)CC2)N(C)C(=O)[C@H](CCc2ccc(C(F)(F)F)c(Cl)c2)NC(=O)CN(C)C(=O)[C@H](CC2CCCCC2)N(C)C(=O)[C@@H]2CCN2C(=O)[C@H](C)N(C)C1=O` [Compound 1039] ([NMeL]I[NMeA][Aze][NMeCha][Sar][hPhe(3-Cl-4-CF3)][NMeD](N(CH2CH2)2CF2)[Ac5c][NMeGly(cPent)][NMeD]-{3Oxa8azabicyclo(3.2.1)octane}; lactam N-11) the figure was 7.35; with `CC[C@H](C)[C@@H]1NC(=O)[C@H](CC(C)C)N(C)C(=O)C[C@@H](C(=O)N2CCCCC2)N(C)C(=O)[C@H]([C@@H](C)O)N(C)C(=O)C2(CCCC2)NC(=O)[C@@H]2CCCN2C(=O)[C@H](CCc2ccc(C(F)(F)F)c(Cl)c2)NC(=O)CN(C)C(=O)[C@H](CC2CCCCC2)N(C)C(=O)CN(C)C(=O)CN(C)C1=O` [Compound 1041] ([NMeL]I[Sar][Sar][NMeCha][Sar][hPhe(3-Cl-4-CF3)]P[Ac5c][NMeT][NMeD]-Piperidide; lactam N-11), 8.80; with `CCCC[C@@H]1NC(=O)[C@H](Cc2ccccc2)NC(=O)CN(C)C(=O)[C@H](Cc2ccc(Cl)cc2)N(C)C(=O)CN(C)C(=O)CN(C)C(=O)[C@H]([C@@H](C)CC)NC(=O)[C@H](CC(C)C)N(C)C(=O)C[C@@H](C(=O)N2CCCCC2)N(C)C(=O)[C@H](CC(C)C)NC(=O)C(C)(C)N(C)C1=O` [Compound 1043] ([NMeL]I[Sar][Sar][NMePhe(4-Cl)][Sar]F[Nle][NMeAib]L[NMeD]-Piperidide; lactam N-11), 7.22.
Next, `CCCC[C@@H]1NC(=O)[C@H](Cc2cccc(I)c2)NC(=O)CN(C)C(=O)[C@H](Cc2ccc(Cl)cc2)N(C)C(=O)CN(C)C(=O)CN(C)C(=O)[C@H]([C@@H](C)CC)NC(=O)[C@H](CC(C)C)N(C)C(=O)C[C@@H](C(=O)N2CCCCC2)N(C)C(=O)[C@H](CC(C)C)NC(=O)[C@H](Cc2cccc(Cl)c2)N(C)C1=O` [Compound 1044] ([NMeL]I[Sar][Sar][NMePhe(4-Cl)][Sar][Phe(3-I)][Nle][NMePhe(3-Cl)]L[NMeD]-Piperidide; lactam N-11): 7.26; `CC[C@H](C)[C@@H]1NC(=O)[C@H](C)N(C)C(=O)C[C@@H](C(=O)N2CCCC2)NC(=O)[C@H](CC(C)C)N(C)C(=O)[C@H](Cc2ccccc2)N(C)C(=O)[C@@H]2CCCN2C(=O)[C@H](CCc2ccc(C(F)(F)F)cc2)NC(=O)CN(C)C(=O)[C@H](Cc2ccc(Cl)cc2)N(C)C(=O)CN(C)C(=O)CN(C)C1=O` [Compound 1048] ([NMeA]I[Sar][Sar][NMePhe(4-Cl)][Sar][hPhe(4-CF3)]P[NMeF][NMeL]D-Pyrrolidide; lactam N-11): 7.74.
With `CC[C@H](C)[C@@H]1NC(=O)[C@H](CC(C)C)N(C)C(=O)C[C@@H](C)NC(=O)[C@H](C(C)C)N(C)C(=O)C2(CCCC2)NC(=O)[C@@H]2CCCN2C(=O)[C@H](CCc2ccc(C(F)(F)F)c(Cl)c2)NC(=O)CN(C)C(=O)[C@H](CC2CCCCC2)N(C)C(=O)[C@@H]2CCCN2C(=O)CN(C)C1=O` [Compound 1050] (cyclo([Ac5c][NMeV][d(β3hA)][NMeL]I[Sar]P[NMeCha][Sar][hPhe(3-Cl-4-CF3)]P)) the figure was 7.31; with `CCCC[C@@H]1NC(=O)[C@H](Cc2cccc(I)c2)NC(=O)CN(C)C(=O)[C@H](Cc2ccc(Cl)cc2)N(C)C(=O)CN(C)C(=O)CN(C)C(=O)[C@H]([C@@H](C)CC)NC(=O)[C@H](CC(C)C)N(C)C(=O)C[C@@H](C(=O)N2CCCCC2)N(C)C(=O)[C@H](CC(C)C)NC(=O)[C@H](Cc2cccc(C(F)(F)F)c2)N(C)C1=O` [Compound 1052] ([NMeL]I[Sar][Sar][NMePhe(4-Cl)][Sar][Phe(3-I)][Nle][NMePhe(3-CF3)]L[NMeD]-Piperidide; lactam N-11), 6.96.
With `CC[C@H](C)[C@@H]1NC(=O)[C@H](CC(C)C)N(C)C(=O)C[C@@H](C(=O)N2CCCCC2)N(C)C(=O)[C@H](C2CCCCC2)N(C)C(=O)C2(CCCC2)NC(=O)[C@@H]2C[C@H](c3ccccc3)CN2C(=O)[C@H](CCc2ccc(C(F)(F)F)c(Cl)c2)NC(=O)CN(C)C(=O)[C@H](CC2CCCCC2)N(C)C(=O)[C@@H]2CCN2C(=O)[C@H](C)N(C)C1=O` [Compound 1053] ([NMeL]I[NMeA][Aze][NMeCha][Sar][hPhe(3-Cl-4-CF3)][Pro(cis-4-Ph)][Ac5c][NMeChg][NMeD]-Piperidide; lactam N-11), the pIC50 is 8.17.
Next, `CCCC[C@@H]1NC(=O)[C@H](Cc2cccc(I)c2)NC(=O)CN(C)C(=O)[C@H](Cc2ccc(OC)cc2)N(C)C(=O)[C@@H]2CCN2C(=O)CN(C)C(=O)[C@H]([C@@H](C)CC)NC(=O)[C@H](CC(C)C)N(C)C(=O)C[C@@H](C(=O)N2CCCCC2)N(C)C(=O)[C@H](CC(C)C)NC(=O)[C@](C)(Cc2ccccc2)N(C)C1=O` [Compound 1058] ([NMeL]I[Sar][Aze][NMeY](Me)[Sar][Phe(3-I)][Nle][X35]L[NMeD]-Piperidide; lactam N-11): 7.85.
As to `CC[C@H](C)[C@@H]1NC(=O)[C@H](CC(C)C)N(C)C(=O)C[C@@H](C(=O)N2CCCCC2)N(C)C(=O)[C@H](CC(C)C)N(C)C(=O)C2(CCCC2)NC(=O)[C@@H]2CCCN2C(=O)[C@H](CCc2ccc(C(F)(F)F)c(F)c2)NC(=O)CN(C)C(=O)[C@H](Cc2ccc(Cl)cc2)N(C)C(=O)CN(C)C(=O)CN(C)C1=O` [Compound 1061] ([NMeL]I[Sar][Sar][NMePhe(4-Cl)][Sar][hPhe(3-F,4-CF3)]P[Ac5c][NMeL][NMeD]-Piperidide; lactam N-11), the pIC50 was 7.85.
With `CC[C@H](C)[C@@H]1NC(=O)[C@H](CC(C)C)N(C)C(=O)C[C@@H](C(=O)N(C)C)N(C)C(=O)[C@H](C2CCCC2)N(C)C(=O)C2(CCCC2)NC(=O)[C@H](Cc2ccc(Cl)cc2)N(C)C(=O)[C@H](CCc2ccc(C(F)(F)F)c(Cl)c2)NC(=O)CN(C)C(=O)[C@H](CC2CCCCC2)N(C)C(=O)[C@@H]2CCN2C(=O)[C@H](C)N(C)C1=O` [Compound 1063] ([NMeL]I[NMeA][Aze][NMeCha][Sar][hPhe(3-Cl-4-CF3)][NMePhe(4-Cl)][Ac5c][NMeGly(cPent)][NMeD]-NMe2; lactam N-11) the figure was 7.37.

Usually pIC50 stands for the IC50 on a negative log10 scale, so that one unit is a factor of ten.
